Holding throughout (assay type): cell-based, Mouse
Assay [1] relates to C2C12 cells differentiated into myotube cells. As to the kind of experiment: Dexamethasone-induced myotube atrophy in C2C12 cells, myotube cell diameter (Example 1-1). To be noted: 100 μM dexamethasone plus 2 mM or 5 mM disodium uridylate, 48 hours, vs Dex (+), UMP (−). As for the experimental part:
Mouse myoblast cell line C2C12 cells (RIKEN BRC, RCB0987) were suspended in growth medium (Dulbecco's modified Eagle's Medium supplemented with 10% FBS, 100 units/ml of penicillin, 100 μg/ml of streptomycin), seeded in 24-well plates, and incubated in a 37° C., 5% C02 incubator until the cell density reached 70-90%.
The growth medium was removed, and exchanged to a differentiation induction medium (Dulbecco's modified Eagle's Medium supplemented with 2% adult bovine serum, 100 units/ml of penicillin, 100 μg/ml of streptomycin). The cells were cultured for 4 days while exchanging the medium once every 2 days and differentiated into myotube cells. […]
After 24 hours, the medium was changed again. […] Using ImageJ image analysis software, the diameters of 10 myotube cells per a photograph were measured in the order from the myotube cell having the largest diameter, and an average of 50 cells was determined to be the diameter of the myotube cell in each well. […]

A further assay deals with Atrogin-1. The assay can be described thus: Atrogin-1 mRNA expression in dexamethasone-treated C2C12 myotube cells (Example 4). To be noted: 48 hours pretreatment, then 1 μM dexamethasone plus test substance 24 hours, corrected by β-actin. As for the experimental part:
(§1) Mouse myoblast cell line C2C12 cells were suspended in growth medium, seeded in 24-well plates, and incubated in a 37° C., 5% C02 incubator until the cell density reached 70-90%. The growth medium was removed, and exchanged to a differentiation induction medium. The cells were cultured for 6 days while exchanging the medium once every 2 days and differentiated into myotube cells. The medium was removed and exchanged to a differentiation induction medium or a differentiation induction medium containing a test substance. After 48 hours, the medium was removed and replaced with a differentiation induction medium, a differentiation induction medium supplemented only with 1 μM dexamethasone, or a medium supplemented with 1 μM dexamethasone and test substances (a certain amount of UMP (disodium uridylate), a certain amount of Urd (uridine), and […]).
(§2) After 24 hours, the medium was removed and total RNA was extracted from the cells using RNeasy Mini kit (QIAGEN) or NucleoSpin RNA (Takara Bio).
(§3) Using the total RNA as a template, a reverse transcription reaction solution was prepared using the ReverTra Ace(R) qPCR RT Kit (Toyobo). […] Analysis was performed by relative quantification, and mRNA expression levels were corrected using the β-actin mRNA expression level as an endogenous control. […]

The test system of the next assay is MuRF1. As to the kind of experiment: MuRF1 mRNA expression in dexamethasone-treated C2C12 myotube cells (Example 4). To be noted: 48 hours pretreatment, then 1 μM dexamethasone plus test substance 24 hours, corrected by β-actin. As for the experimental part: as §1, §2, §3
Assay [2] has as its system C2C12 cells differentiated into myotube cells. As to the kind of experiment: Dexamethasone-induced myotube atrophy in C2C12 cells, myotube cell diameter (Example 1-2, also used for Examples 2 and 3). As for the experimental part: Mouse myoblast cell line C2C12 cells (RIKEN BRC, RCB0987) were suspended in growth medium (Dulbecco's modified Eagle's Medium supplemented with 10% FBS, 100 units/ml of penicillin, 100 μg/ml of streptomycin), seeded in 24-well plates, and incubated in a 37° C., 5% CO2 incubator until the cell density reached 70-90%.
The growth medium was removed, and exchanged to a differentiation induction medium (Dulbecco's modified Eagle's Medium supplemented with 2% adult bovine serum, 100 units/ml of penicillin, 100 μg/ml of streptomycin). The cells were cultured for 4 days while exchanging the medium once every 2 days and differentiated into myotube cells. The medium was removed and exchanged to the following media: • (1) Differentiation induction medium containing no dexamethasone [Dex (−)]; • (2) Differentiation induction medium containing 100 μM dexamethasone [Dex (+)]; • (3) Differentiation induction medium containing 100 μM dexamethasone and a certain amount of disodium cytidylate [Dex (+), a certain amount of CMP]; • (4) Differentiation induction medium containing 100 μM dexamethasone and a certain amount of cytidine [Dex (+), a certain amount of cytidine (which may be abbreviated as “Cyd”)]; • (5) Differentiation induction medium containing 100 μM dexamethasone and a certain amount of disodium uridylate [Dex (+), certain amount of UMP]; and • (6) Differentiation induction medium containing 100 μM dexamethasone and a certain amount of uridine [Dex (+), certain amount of uridine].
After culturing the cells for 3 days, five positions near the center of the wells were photographed at magnifications of 100. Using ImageJ image analysis software, the diameters of 10 myotube cells per a photograph were measured in the order from the myotube cell having the largest diameter, and an average of 50 cells was determined to be the diameter of the myotube cell in each well. Statistical analysis was performed by t-test or Dunnett's multiple comparison test using the differentiation induction medium treatment group supplemented only with 100 μM dexamethasone as a control. The threshold for statistical significance was set to 5%.
Cytidylic acid and uridylic were added to the medium at the concentrations shown in FIG. 7 so that the total concentration of cytidylic acid and uridylic acid was 1000 μM.
In Example 2, the total concentration of cytidylic acid/uridylic acid added to the medium was adjusted to 1000 μM and a ratio of the cytidylic acid/uridylic acid was varied.
Similarly, the effect of the combination of cytidine and uridine were also evaluated.

[3] abbreviates: Example 1-2, 100 μM dexamethasone plus a certain amount of test substance, 3 days, vs Dex (+) only.
[4] abbreviates: Example 3, 100 μM dexamethasone plus single test substance.

Structures are written as SMILES. Entries after “also recorded” stand apart in the source; their conditions may differ.

`O=c1ccn([C@@H]2O[C@H](COP(=O)(O)O)[C@@H](O)[C@H]2O)c(=O)[nH]1` [uridylic acid]: the myotube cell diameter entry is recorded as “the reduction was suppressed” in assay [1], “significantly increased; also recorded: myotube cell atrophy inhibiting effect” in assay [2] (setting [3]) and “significantly increased” in assay [2] (setting [4]). In addition, the “mRNA expression level of Atrogin-1” value with Atrogin-1 was “decreased; also recorded: excellent inhibiting effect”. Further, in the assay on MuRF1, the “mRNA expression level of MuRF1” value is “decreased; also recorded: excellent inhibiting effect”.
On to `Nc1ccn([C@@H]2O[C@H](CO)[C@@H](O)[C@H]2O)c(=O)n1` [cytidine], for which the results for the myotube cell diameter result in assay [2] (setting [3]) and in assay [2] (setting [4]) were “significantly increased; also recorded: myotube cell atrophy inhibiting effect” and “significantly increased”, respectively.
In the same order, the values of `Nc1ccn([C@@H]2O[C@H](COP(=O)(O)O)[C@@H](O)[C@H]2O)c(=O)n1` [cytidylic acid] are “significantly increased; also recorded: myotube cell atrophy inhibiting effect” and “significantly increased”.
Take `O=c1ccn([C@@H]2O[C@H](CO)[C@@H](O)[C@H]2O)c(=O)[nH]1` [uridine]: in the assay on Atrogin-1, the “mRNA expression level of Atrogin-1” value is “decreased; also recorded: excellent inhibiting effect”. Further, the “mRNA expression level of MuRF1” value in the assay on MuRF1 was “decreased; also recorded: excellent inhibiting effect”. Further, the myotube cell diameter entry was “significantly increased; also recorded: myotube cell atrophy inhibiting effect” in assay [2] (setting [3]) and “significantly increased” in assay [2] (setting [4]).

The values above are taken from US12661369B2, “Muscular atrophy inhibitor and method for inhibiting muscular atrophy” (YAMASA CORPORATION, priority 2020, dated 2026).
